Legend:
[1] = molecular target: Activin receptor type-1B (Homo sapiens) (UniProt P36896); assay: ALK4(h) Kinase panel; details: Compound concentration 1.0 uM, tested as the 2H-labelled form
[2] = molecular target: 5'-AMP-activated protein kinase catalytic subunit alpha-1 (Homo sapiens) (UniProt Q13131); assay: AMPKalpha1(h) Kinase panel; details: Compound concentration 1.0 uM, tested as the 2H-labelled form
[3] = molecular target: 5'-AMP-activated protein kinase catalytic subunit alpha-2 (Homo sapiens, UniProt P54646); assay: AMPKalpha2(h) Kinase panel; details: Compound concentration 1.0 uM, tested as the 2H-labelled form
[4] = molecular target: Serine/threonine-protein kinase A-Raf (Homo sapiens) (UniProt P10398); assay: A-Raf(h) Kinase panel; details: Compound concentration 1.0 uM, tested as the 2H-labelled form
Chain of Serine/threonine-protein kinase A-Raf (Homo sapiens) (P10398 whole entry): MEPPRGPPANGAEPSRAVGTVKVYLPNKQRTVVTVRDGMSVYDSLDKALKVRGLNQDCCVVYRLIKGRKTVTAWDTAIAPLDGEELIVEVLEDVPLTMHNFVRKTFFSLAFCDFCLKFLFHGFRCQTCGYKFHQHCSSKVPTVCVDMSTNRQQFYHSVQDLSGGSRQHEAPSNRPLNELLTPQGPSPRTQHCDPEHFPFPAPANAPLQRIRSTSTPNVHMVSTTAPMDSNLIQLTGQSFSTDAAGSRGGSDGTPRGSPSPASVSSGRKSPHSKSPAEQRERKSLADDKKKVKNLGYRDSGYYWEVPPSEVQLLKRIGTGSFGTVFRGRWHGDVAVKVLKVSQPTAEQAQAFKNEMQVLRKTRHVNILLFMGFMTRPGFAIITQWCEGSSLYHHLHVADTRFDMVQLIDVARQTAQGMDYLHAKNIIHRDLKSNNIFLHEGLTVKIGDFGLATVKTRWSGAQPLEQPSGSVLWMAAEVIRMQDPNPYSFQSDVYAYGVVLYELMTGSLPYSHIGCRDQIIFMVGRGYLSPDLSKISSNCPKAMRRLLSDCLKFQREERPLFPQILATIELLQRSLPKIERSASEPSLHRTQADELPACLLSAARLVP

[5] = molecular target: Protein-tyrosine kinase 6 (Homo sapiens) (UniProt Q13882); assay: BRK(h) Kinase panel; details: Compound concentration 1.0 uM, tested as the 2H-labelled form
[6] = molecular target: Serine/threonine-protein kinase BRSK1 (Homo sapiens) (UniProt Q8TDC3); assay: BrSK1(h) Kinase panel; details: Compound concentration 1.0 uM, tested as the 2H-labelled form
[7] = molecular target: Calcium/calmodulin-dependent protein kinase type II subunit alpha (Homo sapiens) (UniProt Q9UQM7); assay: CaMKIIalpha(h) Kinase panel; details: Compound concentration 1.0 uM, tested as the 2H-labelled form
[8] = molecular target: Calcium/calmodulin-dependent protein kinase type II subunit delta (Homo sapiens) (UniProt Q13557); assay: CaMKIIdelta(h) Kinase panel; details: Compound concentration 1.0 uM, tested as the 2H-labelled form
[9] = molecular target: Cyclin-dependent kinase 5 (Homo sapiens) (UniProt Q00535); assay: CDK5/p35(h) Kinase panel; details: Compound concentration 1.0 uM, tested as the 2H-labelled form
[10] = molecular target: Casein kinase I isoform epsilon (Homo sapiens, UniProt P49674); assay: CK1epsilon(h) Kinase panel; details: Compound concentration 1.0 uM, tested as the 2H-labelled form
[11] = molecular target: Casein kinase II subunit alpha (Homo sapiens) (UniProt P68400); assay: CK2alpha1(h) Kinase panel; details: Compound concentration 1.0 uM, tested as the 2H-labelled form
[12] = molecular target: Casein kinase II subunit alpha' (Homo sapiens) (UniProt P19784); assay: CK2alpha2(h) Kinase panel; details: Compound concentration 1.0 uM, tested as the 2H-labelled form
[13] = molecular target: Dual specificity tyrosine-phosphorylation-regulated kinase 1B (Homo sapiens) (UniProt Q9Y463); assay: DYRK1B(h) Kinase panel; details: Compound concentration 1.0 uM, tested as the 2H-labelled form
[14] = molecular target: Ephrin type-A receptor 4 (Homo sapiens) (UniProt P54764); assay: EphA4(h) Kinase panel; details: Compound concentration 1.0 uM, tested as the 2H-labelled form
[15] = molecular target: Tyrosine-protein kinase Fer (Homo sapiens) (UniProt P16591); assay: Fer(h) Kinase panel; details: Compound concentration 1.0 uM, tested as the 2H-labelled form
[16] = molecular target: Beta-adrenergic receptor kinase 1 (Homo sapiens) (UniProt P25098); assay: GRK2(h) Kinase panel; details: Compound concentration 1.0 uM, tested as the 2H-labelled form
[17] = molecular target: Interleukin-1 receptor-associated kinase 1 (Homo sapiens) (UniProt P51617); assay: IRAK1(h) Kinase panel; details: Compound concentration 1.0 uM, tested as the 2H-labelled form
Chain of Interleukin-1 receptor-associated kinase 1 (Homo sapiens) (P51617 whole entry, looked up): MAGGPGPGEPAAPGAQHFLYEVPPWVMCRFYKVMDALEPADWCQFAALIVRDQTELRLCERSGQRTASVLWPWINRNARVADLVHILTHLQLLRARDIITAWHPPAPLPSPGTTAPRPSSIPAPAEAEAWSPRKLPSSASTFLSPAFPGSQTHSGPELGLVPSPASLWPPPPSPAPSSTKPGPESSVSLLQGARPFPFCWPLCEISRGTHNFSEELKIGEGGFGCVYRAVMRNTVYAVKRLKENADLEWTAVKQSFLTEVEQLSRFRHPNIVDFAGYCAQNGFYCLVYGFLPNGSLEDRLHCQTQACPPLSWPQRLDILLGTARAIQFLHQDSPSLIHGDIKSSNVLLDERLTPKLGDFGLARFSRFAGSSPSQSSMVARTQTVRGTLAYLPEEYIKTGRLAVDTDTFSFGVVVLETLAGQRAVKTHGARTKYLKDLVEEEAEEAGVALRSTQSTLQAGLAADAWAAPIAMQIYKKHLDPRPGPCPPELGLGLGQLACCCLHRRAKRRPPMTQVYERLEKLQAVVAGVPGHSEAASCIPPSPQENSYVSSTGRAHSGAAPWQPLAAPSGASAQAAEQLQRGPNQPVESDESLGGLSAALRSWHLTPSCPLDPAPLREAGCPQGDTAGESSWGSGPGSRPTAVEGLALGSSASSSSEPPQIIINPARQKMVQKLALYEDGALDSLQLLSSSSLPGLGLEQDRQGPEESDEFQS

[18] = molecular target: Tyrosine-protein kinase Lck (Homo sapiens) (UniProt P06239); assay: Lck(h) Kinase panel; details: Compound concentration 1.0 uM, tested as the 2H-labelled form
[19] = molecular target: Tyrosine-protein kinase Lyn (Homo sapiens) (UniProt P07948); assay: Lyn(h) Kinase panel; details: Compound concentration 1.0 uM, tested as the 2H-labelled form
Chain of Tyrosine-protein kinase Lyn (Homo sapiens) (P07948 2-512 limits assumed): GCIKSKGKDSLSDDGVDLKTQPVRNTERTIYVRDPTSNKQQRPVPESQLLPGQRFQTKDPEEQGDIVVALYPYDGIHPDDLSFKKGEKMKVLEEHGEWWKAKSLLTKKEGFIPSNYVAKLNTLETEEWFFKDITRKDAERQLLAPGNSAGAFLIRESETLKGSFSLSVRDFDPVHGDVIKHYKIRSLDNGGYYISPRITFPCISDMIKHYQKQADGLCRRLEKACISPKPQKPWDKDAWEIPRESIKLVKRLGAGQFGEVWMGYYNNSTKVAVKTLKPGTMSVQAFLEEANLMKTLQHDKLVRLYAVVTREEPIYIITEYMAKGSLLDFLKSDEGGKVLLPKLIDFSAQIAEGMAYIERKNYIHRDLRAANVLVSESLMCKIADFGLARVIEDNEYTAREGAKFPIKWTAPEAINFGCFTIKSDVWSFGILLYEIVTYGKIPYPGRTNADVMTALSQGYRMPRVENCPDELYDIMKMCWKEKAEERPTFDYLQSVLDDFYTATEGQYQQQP

[20] = molecular target: Ribosomal protein S6 kinase alpha-5 (Homo sapiens) (UniProt O75582); assay: MSK1(h) Kinase panel; details: Compound concentration 1.0 uM, tested as the 2H-labelled form
Chain of Ribosomal protein S6 kinase alpha-5 (Homo sapiens) (O75582 whole entry, looked up): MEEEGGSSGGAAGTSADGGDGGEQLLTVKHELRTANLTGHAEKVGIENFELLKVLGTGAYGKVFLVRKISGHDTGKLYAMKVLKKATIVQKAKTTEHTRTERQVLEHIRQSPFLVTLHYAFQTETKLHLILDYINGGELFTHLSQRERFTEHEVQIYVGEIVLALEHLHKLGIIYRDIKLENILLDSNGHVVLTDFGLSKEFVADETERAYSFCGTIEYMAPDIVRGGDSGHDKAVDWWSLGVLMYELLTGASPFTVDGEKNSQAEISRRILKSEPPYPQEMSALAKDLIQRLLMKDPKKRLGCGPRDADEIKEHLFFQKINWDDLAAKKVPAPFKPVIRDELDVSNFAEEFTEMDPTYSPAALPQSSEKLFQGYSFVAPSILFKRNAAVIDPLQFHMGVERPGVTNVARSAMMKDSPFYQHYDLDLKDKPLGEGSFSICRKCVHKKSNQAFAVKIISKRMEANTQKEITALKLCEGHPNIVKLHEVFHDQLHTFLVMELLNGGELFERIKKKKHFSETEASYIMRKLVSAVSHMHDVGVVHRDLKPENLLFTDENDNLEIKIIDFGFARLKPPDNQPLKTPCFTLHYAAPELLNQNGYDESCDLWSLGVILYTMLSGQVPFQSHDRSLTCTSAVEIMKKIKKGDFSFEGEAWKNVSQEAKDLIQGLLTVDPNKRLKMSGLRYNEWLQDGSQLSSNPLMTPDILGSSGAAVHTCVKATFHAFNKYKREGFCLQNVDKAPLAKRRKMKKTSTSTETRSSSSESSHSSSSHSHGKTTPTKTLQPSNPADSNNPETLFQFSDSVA

[21] = molecular target: Ribosomal protein S6 kinase alpha-4 (Homo sapiens) (UniProt O75676); assay: MSK2(h) Kinase panel; details: Compound concentration 1.0 uM, tested as the 2H-labelled form
[22] = molecular target: Serine/threonine-protein kinase 4 (Homo sapiens) (UniProt Q13043); assay: MST1(h) Kinase panel; details: Compound concentration 1.0 uM, tested as the 2H-labelled form
[23] = molecular target: Serine/threonine-protein kinase mTOR (Homo sapiens) (UniProt P42345); assay: mTOR(h) Kinase panel; details: Compound concentration 1.0 uM, tested as the 2H-labelled form
[24] = molecular target: Serine/threonine-protein kinase PAK 3 (Homo sapiens) (UniProt O75914); assay: PAK3(h) Kinase panel; details: Compound concentration 1.0 uM, tested as the 2H-labelled form
[25] = molecular target: PAS domain-containing serine/threonine-protein kinase (Homo sapiens) (UniProt Q96RG2); assay: PASK(h) Kinase panel; details: Compound concentration 1.0 uM, tested as the 2H-labelled form
[26] = molecular target: Protein kinase C eta type (Homo sapiens) (UniProt P24723); assay: PKCeta (h) Kinase panel; details: Compound concentration 1.0 uM, tested as the 2H-labelled form
[27] = molecular target: Interferon-induced, double-stranded RNA-activated protein kinase (Homo sapiens) (UniProt P19525); assay: PKR(h) Kinase panel; details: Compound concentration 1.0 uM, tested as the 2H-labelled form
[28] = molecular target: Serine/threonine-protein kinase SIK3 (Homo sapiens) (UniProt Q9Y2K2); assay: SIK3(h) Kinase panel; details: Compound concentration 1.0 uM, tested as the 2H-labelled form
[29] = molecular target: SRSF protein kinase 2 (Homo sapiens) (UniProt P78362); assay: SRPK2(h) Kinase panel; details: Compound concentration 1.0 uM, tested as the 2H-labelled form
[30] = molecular target: Serine/threonine-protein kinase 32C (Homo sapiens) (UniProt Q86UX6); assay: STK32C(h) Kinase panel; details: Compound concentration 1.0 uM, tested as the 2H-labelled form
[31] = molecular target: Serine/threonine-protein kinase TAO2 (Homo sapiens) (UniProt Q9UL54); assay: TAO2(h) Kinase panel; details: Compound concentration 1.0 uM, tested as the 2H-labelled form
[32] = molecular target: Serine/threonine-protein kinase tousled-like 2 (Homo sapiens) (UniProt Q86UE8); assay: TLK2(h) Kinase panel; details: Compound concentration 1.0 uM, tested as the 2H-labelled form
[33] = molecular target: Serine/threonine-protein kinase ULK2 (Homo sapiens) (UniProt Q8IYT8); assay: ULK2(h) Kinase panel; details: Compound concentration 1.0 uM, tested as the 2H-labelled form
Chain of Serine/threonine-protein kinase ULK2 (Homo sapiens) (Q8IYT8 whole entry): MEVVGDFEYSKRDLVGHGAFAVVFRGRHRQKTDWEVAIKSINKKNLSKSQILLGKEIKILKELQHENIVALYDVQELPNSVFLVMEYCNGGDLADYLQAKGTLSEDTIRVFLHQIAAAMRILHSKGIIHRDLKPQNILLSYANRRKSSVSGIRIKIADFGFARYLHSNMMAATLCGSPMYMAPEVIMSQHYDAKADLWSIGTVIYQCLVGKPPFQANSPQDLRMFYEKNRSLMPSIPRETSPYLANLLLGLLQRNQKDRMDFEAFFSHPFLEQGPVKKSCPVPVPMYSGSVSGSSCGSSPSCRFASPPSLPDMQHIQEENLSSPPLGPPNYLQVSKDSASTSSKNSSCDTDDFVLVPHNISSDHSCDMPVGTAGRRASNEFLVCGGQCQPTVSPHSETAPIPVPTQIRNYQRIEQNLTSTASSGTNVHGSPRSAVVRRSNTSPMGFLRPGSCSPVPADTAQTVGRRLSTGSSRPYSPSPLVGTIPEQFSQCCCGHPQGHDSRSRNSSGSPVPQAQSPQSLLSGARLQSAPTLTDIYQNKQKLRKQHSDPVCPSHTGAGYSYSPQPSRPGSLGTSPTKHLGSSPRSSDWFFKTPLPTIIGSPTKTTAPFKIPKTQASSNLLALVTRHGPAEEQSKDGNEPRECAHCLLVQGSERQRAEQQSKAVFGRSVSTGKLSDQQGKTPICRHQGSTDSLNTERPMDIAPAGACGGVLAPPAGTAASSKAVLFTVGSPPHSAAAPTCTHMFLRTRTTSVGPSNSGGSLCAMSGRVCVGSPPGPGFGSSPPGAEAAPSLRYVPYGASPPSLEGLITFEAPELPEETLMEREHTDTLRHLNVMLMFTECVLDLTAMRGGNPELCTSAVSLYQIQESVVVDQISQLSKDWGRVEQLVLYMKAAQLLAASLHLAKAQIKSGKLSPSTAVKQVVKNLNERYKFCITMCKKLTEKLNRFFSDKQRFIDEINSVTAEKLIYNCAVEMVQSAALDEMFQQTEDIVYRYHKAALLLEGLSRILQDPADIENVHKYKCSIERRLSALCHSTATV

[34] = molecular target: Serine/threonine-protein kinase ULK3 (Homo sapiens) (UniProt Q6PHR2); assay: ULK3(h) Kinase panel; details: Compound concentration 1.0 uM, tested as the 2H-labelled form
[35] = molecular target: Serine/threonine-protein kinase VRK2 (Homo sapiens) (UniProt Q86Y07); assay: VRK2(h) Kinase panel; details: Compound concentration 1.0 uM, tested as the 2H-labelled form
[36] = molecular target: Wee1-like protein kinase 2 (Homo sapiens) (UniProt P0C1S8); assay: Wee1B(h) Kinase panel; details: Compound concentration 1.0 uM, tested as the 2H-labelled form
[37] = molecular target: Serine/threonine-protein kinase WNK4 (Homo sapiens) (UniProt Q96J92); assay: WNK4(h) Kinase panel; details: Compound concentration 1.0 uM, tested as the 2H-labelled form
[38] = molecular target: Tyrosine-protein kinase Yes (Homo sapiens) (UniProt P07947); assay: Yes(h) Kinase panel; details: Compound concentration 1.0 uM, tested as the 2H-labelled form
[39] = molecular target: Phosphatidylinositol 4,5-bisphosphate 3-kinase catalytic subunit beta isoform (Homo sapiens) (UniProt P42338); assay: PI3 Kinase (p110b/p85a)(h) Kinase panel; details: Compound concentration 1.0 uM, tested as the 2H-labelled form
[40] = molecular target: Phosphatidylinositol 4,5-bisphosphate 3-kinase catalytic subunit gamma isoform (Homo sapiens) (UniProt P48736); assay: PI3 Kinase (p120g)(h) Kinase panel; details: Compound concentration 1.0 uM, tested as the 2H-labelled form
[41] = molecular target: Phosphatidylinositol 3-kinase C2 domain-containing subunit gamma (Homo sapiens) (UniProt O75747); assay: PI3KC2g(h) Kinase panel; details: Compound concentration 1.0 uM, tested as the 2H-labelled form
[42] = molecular target: D(1A) dopamine receptor (Homo sapiens) (UniProt P21728); details: Compound concentration 10.0 uM, tested as the 2H-labelled form
[43] = molecular target: D(4) dopamine receptor (Homo sapiens) (UniProt P21917); details: Compound concentration 10.0 uM, tested as the 2H-labelled form
[44] = molecular target: Sodium-dependent serotonin transporter (Homo sapiens) (UniProt P31645); details: Compound concentration 10.0 uM, tested as the 2H-labelled form
[45] = molecular target: Mu-type opioid receptor (Homo sapiens) (UniProt P35372); details: Compound concentration 10.0 uM, tested as the 2H-labelled form
[46] = molecular target: Histamine H2 receptor (Homo sapiens) (UniProt P25021); details: Compound concentration 10.0 uM, tested as the 2H-labelled form
[47] = molecular target: Muscarinic acetylcholine receptor M2 (Homo sapiens) (UniProt P08172); details: Compound concentration 10.0 uM, tested as the 2H-labelled form
[48] = molecular target: Muscarinic acetylcholine receptor M3 (Homo sapiens) (UniProt P20309); details: Compound concentration 10.0 uM, tested as the 2H-labelled form
[49] = molecular target: Sigma non-opioid intracellular receptor 1 (Homo sapiens) (UniProt Q99720); details: Compound concentration 10.0 uM, tested as the 2H-labelled form
Chain of Sigma non-opioid intracellular receptor 1 (Homo sapiens) (Q99720 whole entry, canonical isoform): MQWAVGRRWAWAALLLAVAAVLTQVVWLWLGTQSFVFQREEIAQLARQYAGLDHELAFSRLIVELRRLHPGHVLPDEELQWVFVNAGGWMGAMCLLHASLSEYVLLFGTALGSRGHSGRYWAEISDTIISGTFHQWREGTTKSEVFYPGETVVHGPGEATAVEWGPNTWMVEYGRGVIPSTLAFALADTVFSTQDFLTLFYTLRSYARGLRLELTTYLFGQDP

[50] = molecular target: Phosphorylase b kinase gamma catalytic chain, testis/liver isoform (Homo sapiens) (UniProt P15735); assay: PhKgamma2(h) Kinase panel; details: Compound concentration 1.0 uM, tested as the 2H-labelled form
Chain of Phosphorylase b kinase gamma catalytic chain, testis/liver isoform (Homo sapiens) (P15735 whole entry, looked up, canonical isoform): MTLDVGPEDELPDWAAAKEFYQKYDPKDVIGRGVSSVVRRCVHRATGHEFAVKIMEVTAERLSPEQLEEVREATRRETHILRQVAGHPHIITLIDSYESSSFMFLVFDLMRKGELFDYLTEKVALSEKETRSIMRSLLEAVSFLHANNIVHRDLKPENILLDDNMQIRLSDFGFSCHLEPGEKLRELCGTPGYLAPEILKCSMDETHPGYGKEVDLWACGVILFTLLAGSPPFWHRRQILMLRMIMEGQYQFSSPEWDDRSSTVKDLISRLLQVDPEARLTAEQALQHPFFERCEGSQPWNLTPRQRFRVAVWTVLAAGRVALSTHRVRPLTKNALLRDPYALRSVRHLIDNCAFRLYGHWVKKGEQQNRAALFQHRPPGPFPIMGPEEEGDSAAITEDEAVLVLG

Measured: inhibition

Chain of 5'-AMP-activated protein kinase catalytic subunit alpha-1 (Homo sapiens) (Q13131 whole entry, looked up): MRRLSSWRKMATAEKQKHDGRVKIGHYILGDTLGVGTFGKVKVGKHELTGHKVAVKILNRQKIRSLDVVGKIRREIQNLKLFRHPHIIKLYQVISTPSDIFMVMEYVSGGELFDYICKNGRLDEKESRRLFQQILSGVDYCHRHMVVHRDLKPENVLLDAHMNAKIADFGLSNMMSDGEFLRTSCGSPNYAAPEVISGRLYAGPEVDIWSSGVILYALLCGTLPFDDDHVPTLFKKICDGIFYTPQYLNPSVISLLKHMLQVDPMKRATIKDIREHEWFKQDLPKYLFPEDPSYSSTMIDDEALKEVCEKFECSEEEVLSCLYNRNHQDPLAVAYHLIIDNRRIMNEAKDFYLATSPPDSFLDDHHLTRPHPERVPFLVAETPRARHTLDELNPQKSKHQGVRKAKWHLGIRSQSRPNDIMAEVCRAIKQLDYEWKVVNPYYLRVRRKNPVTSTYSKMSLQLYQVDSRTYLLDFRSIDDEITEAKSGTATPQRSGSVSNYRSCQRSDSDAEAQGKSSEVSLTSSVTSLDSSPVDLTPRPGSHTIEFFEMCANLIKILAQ

CC1(C)Cn2nc(-c3ccc(F)cn3)c(-c3ccnc4[nH]ncc34)c2CO1
inactive: [1] 25% | [2] 0% | [3] 31% | [4] 12% | [5] -1% | [6] 13% | [7] 0% | [8] -6% | [9] 15% | [10] 96% | [11] 2% | [12] 4% | [13] -10% | [14] 0% | [15] 20% | [16] -8% | [17] 15% | [18] 17% | [19] 21% | [20] 8% | [21] -1% | [22] -4% | [23] -9% | [24] 9% | [25] 24% | [26] 19% | [27] 4% | [28] -1% | [29] -8% | [30] 4% | [31] 18% | [32] 12% | [33] 17% | [34] 12% | [35] 8% | [36] -1% | [37] 10% | [38] -6% | [39] 0% | [40] 2% | [41] -4% | [42] -1.8% | [43] -5.66% | [44] 2.66% | [45] -6.9% | [46] -1.3% | [47] -0.4% | [48] -2.78% | [49] 15.1% | [50] -9%

— ChEMBL document CHEMBL5058645, “Data for DCP probe JNJ-6204” (2022)
